Experimental data taken from ChEMBL document CHEMBL1201862, “PubChem BioAssay data set” (2004).
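These data come from cells grown in 96-well plates and exposed to compound for 48 hours at five concentrations. GI50: concentration for 50% inhibition of growth.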 Calls of active or inactive are those of the source. Rule as the data show it: active = GI50 up to about 1.1 µM and inactive = higher.

Experiments:
Test in all cases: NCI tumour cell line growth inhibition, 48 h
786-0 = test system: 786-0
HL-60 = test system: HL-60
A549 = test system: A549
NCI-H226 = test system: NCI-H226
UO-31 = test system: UO-31
SK-MEL-2 = test system: SK-MEL-2
CAKI-1 = test system: CAKI-1
CCRF-CEM = test system: CCRF-CEM
UACC-257 = test system: UACC-257
OVCAR-4 = test system: OVCAR-4
Malme-3M = test system: Malme-3M
RXF 393 = test system: RXF 393
RXF 631 = test system: RXF 631
SNB-19 = test system: SNB-19
SN12C = test system: SN12C
DLD-1 = test system: DLD-1
NCI-H460 = test system: NCI-H460
ACHN = test system: ACHN
HT-29 = test system: HT-29
HOP-18 = test system: HOP-18
EKVX = test system: EKVX
SK-MEL-28 = test system: SK-MEL-28
HCT-15 = test system: HCT-15
NCI-H522 = test system: NCI-H522
OVCAR-8 = test system: OVCAR-8
SF-295 = test system: SF-295
M14 = test system: M14
XF498 = test system: XF498
HOP-62 = test system: HOP-62
OVCAR-3 = test system: OVCAR-3
KM12 = test system: KM12
SF-539 = test system: SF-539
SF-268 = test system: SF-268
SR = test system: SR
SK-MEL-5 = test system: SK-MEL-5
IGROV-1 = test system: IGROV-1
SW-620 = test system: SW-620
U-251 = test system: U-251
M19-MEL = test system: M19-MEL
COLO 205 = test system: COLO 205
HCC 2998 = test system: HCC 2998
NCI-H23 = test system: NCI-H23
UACC-62 = test system: UACC-62
MOLT-4 = test system: MOLT-4
HCT-116 = test system: HCT-116
LXFL 529 = test system: LXFL 529
K562 = test system: K562
RPMI-8226 = test system: RPMI-8226
OVCAR-5 = test system: OVCAR-5
LOX IMVI = test system: LOX IMVI
KM-20L2 = test system: KM-20L2
HOP-92 = test system: HOP-92
SNB-78 = test system: SNB-78
DMS-114 = test system: DMS-114
SNB-75 = test system: SNB-75
SK-OV-3 = test system: SK-OV-3
TK-10 = test system: TK-10

With `CCOC(=O)C(C(=O)c1ccccc1)=C1NCCN1` the GI50 (786-0) was > 100 µM (inactive), the GI50 (HL-60) was > 100 µM (inactive) and the GI50 (A549) was > 100 µM (inactive). For the same compound, the GI50 (NCI-H226) was > 100 µM (inactive), the GI50 (UO-31) was > 100 µM (inactive) and the GI50 (SK-MEL-2) was > 100 µM (inactive). The GI50 (CAKI-1) was > 100 µM (inactive), the GI50 (CCRF-CEM) was > 100 µM (inactive) and the GI50 (UACC-257) was > 100 µM (inactive). For the same compound, the GI50 (OVCAR-4) was > 100 µM (inactive), the GI50 (Malme-3M) was > 100 µM (inactive) and the GI50 (RXF 393) was > 100 µM (inactive). For the same compound, the GI50 (RXF 631) was > 100 µM (inactive), the GI50 (SNB-19) was > 100 µM (inactive) and the GI50 (SN12C) was > 100 µM (inactive). The GI50 (DLD-1) was > 100 µM (inactive), the GI50 (NCI-H460) was > 100 µM (inactive) and the GI50 (ACHN) was > 100 µM (inactive). For the same compound, the GI50 (HT-29) was > 100 µM (inactive), the GI50 (HOP-18) was 4.06 µM (inactive) and the GI50 (EKVX) was > 100 µM (inactive). For the same compound, the GI50 (SK-MEL-28) was > 100 µM (inactive), the GI50 (HCT-15) was > 100 µM and the GI50 (NCI-H522) was > 100 µM (inactive). For the same compound, the GI50 (OVCAR-8) was > 100 µM (inactive), the GI50 (SF-295) was > 100 µM (inactive) and the GI50 (M14) was > 100 µM (inactive). For the same compound, the GI50 (XF498) was > 100 µM (inactive), the GI50 (HOP-62) was > 100 µM (inactive) and the GI50 (OVCAR-3) was > 100 µM (inactive). The GI50 (KM12) was > 100 µM (inactive), the GI50 (SF-539) was > 100 µM (inactive) and the GI50 (SF-268) was > 100 µM (inactive). The GI50 (SR) was > 100 µM (inactive), the GI50 (SK-MEL-5) was > 100 µM (inactive) and the GI50 (IGROV-1) was > 100 µM (inactive). For the same compound, the GI50 (SW-620) was > 100 µM (inactive), the GI50 (U-251) was > 100 µM (inactive) and the GI50 (M19-MEL) was > 100 µM (inactive). The GI50 (COLO 205) was > 100 µM (inactive), the GI50 (HCC 2998) was > 100 µM (inactive) and the GI50 (NCI-H23) was > 100 µM (inactive). For the same compound, the GI50 (UACC-62) was > 100 µM (inactive), the GI50 (MOLT-4) was > 100 µM (inactive) and the GI50 (HCT-116) was > 100 µM (inactive). For the same compound, the GI50 (LXFL 529) was > 100 µM (inactive), the GI50 (K562) was > 100 µM (inactive) and the GI50 (RPMI-8226) was > 100 µM (inactive). For the same compound, the GI50 (OVCAR-5) was > 100 µM (inactive), the GI50 (LOX IMVI) was > 100 µM (inactive) and the GI50 (KM-20L2) was > 100 µM (inactive).

`CCN(CC)CCn1c2c3ccccc3ccc2c2oc(=O)c3ccccc3c21` was tested, and the GI50 (786-0) was 22.9 µM (inactive), the GI50 (HL-60) was > 100 µM (inactive) and the GI50 (A549) was > 100 µM (inactive). The GI50 (UO-31) was > 100 µM (inactive), the GI50 (SK-MEL-2) was > 100 µM (inactive) and the GI50 (HOP-92) was 83.6 µM (inactive). The GI50 (CAKI-1) was > 100 µM (inactive), the GI50 (CCRF-CEM) was > 100 µM (inactive) and the GI50 (SNB-78) was > 100 µM (inactive). The GI50 (UACC-257) was > 100 µM (inactive), the GI50 (OVCAR-4) was 28.1 µM (inactive) and the GI50 (Malme-3M) was > 100 µM (inactive). For the same compound, the GI50 (RXF 631) was > 100 µM (inactive), the GI50 (SNB-19) was 80 µM (inactive) and the GI50 (DLD-1) was > 100 µM (inactive). The GI50 (NCI-H460) was 13.7 µM (inactive), the GI50 (ACHN) was > 100 µM (inactive) and the GI50 (HT-29) was > 100 µM (inactive). For the same compound, the GI50 (HOP-18) was > 100 µM (inactive), the GI50 (EKVX) was > 100 µM (inactive) and the GI50 (SK-MEL-28) was > 100 µM (inactive). The GI50 (HCT-15) was > 100 µM, the GI50 (DMS-114) was > 100 µM (inactive) and the GI50 (SNB-75) was 15.9 µM (inactive). For the same compound, the GI50 (NCI-H522) was > 100 µM (inactive), the GI50 (OVCAR-8) was > 100 µM (inactive) and the GI50 (SF-295) was 56.2 µM (inactive). For the same compound, the GI50 (M14) was 45.5 µM (inactive), the GI50 (XF498) was > 100 µM (inactive) and the GI50 (HOP-62) was 18.3 µM (inactive). For the same compound, the GI50 (OVCAR-3) was > 100 µM (inactive), the GI50 (KM12) was > 100 µM (inactive) and the GI50 (SF-539) was 22.6 µM (inactive). For the same compound, the GI50 (SK-OV-3) was > 100 µM (inactive), the GI50 (SF-268) was 82.2 µM (inactive) and the GI50 (SR) was 34.7 µM (inactive). For the same compound, the GI50 (IGROV-1) was 68.1 µM (inactive), the GI50 (SW-620) was > 100 µM (inactive) and the GI50 (U-251) was 57 µM (inactive). For the same compound, the GI50 (M19-MEL) was > 100 µM (inactive), the GI50 (COLO 205) was > 100 µM (inactive) and the GI50 (NCI-H23) was > 100 µM (inactive). For the same compound, the GI50 (UACC-62) was > 100 µM (inactive), the GI50 (HCT-116) was 88.5 µM (inactive) and the GI50 (LXFL 529) was > 100 µM (inactive). For the same compound, the GI50 (K562) was > 100 µM (inactive), the GI50 (RPMI-8226) was > 100 µM (inactive) and the GI50 (OVCAR-5) was > 100 µM (inactive). For the same compound, the GI50 (LOX IMVI) was > 100 µM (inactive), the GI50 (TK-10) was > 100 µM (inactive) and the GI50 (KM-20L2) was > 100 µM (inactive).
